These results are taken from ChEMBL document CHEMBL1137791, “Cell division cycle 7 kinase inhibitors: 1H-pyrrolo[2,3-b]pyridines, synthesis and structure-activity relationships” (J Med Chem, 2009).

Test [1] concerns the target Cell division cycle 7-related protein kinase (Homo sapiens, UniProt O00311). As to the kind of experiment: Inhibition of Cdc7-mediated phosphorylation of Mcm2.
Test [2] deals with cAMP-dependent protein kinase catalytic subunit alpha (Homo sapiens, UniProt P17612). In words: Inhibition of PKAalpha.
For another test, the target named is CDK9/cyclin T1 (Homo sapiens, UniProt P50750). As to the kind of experiment: Inhibition of Cdk9/cyclinT. The format is protein-complex assay.
Chain of CDK9/cyclin T1 (O60563 whole entry): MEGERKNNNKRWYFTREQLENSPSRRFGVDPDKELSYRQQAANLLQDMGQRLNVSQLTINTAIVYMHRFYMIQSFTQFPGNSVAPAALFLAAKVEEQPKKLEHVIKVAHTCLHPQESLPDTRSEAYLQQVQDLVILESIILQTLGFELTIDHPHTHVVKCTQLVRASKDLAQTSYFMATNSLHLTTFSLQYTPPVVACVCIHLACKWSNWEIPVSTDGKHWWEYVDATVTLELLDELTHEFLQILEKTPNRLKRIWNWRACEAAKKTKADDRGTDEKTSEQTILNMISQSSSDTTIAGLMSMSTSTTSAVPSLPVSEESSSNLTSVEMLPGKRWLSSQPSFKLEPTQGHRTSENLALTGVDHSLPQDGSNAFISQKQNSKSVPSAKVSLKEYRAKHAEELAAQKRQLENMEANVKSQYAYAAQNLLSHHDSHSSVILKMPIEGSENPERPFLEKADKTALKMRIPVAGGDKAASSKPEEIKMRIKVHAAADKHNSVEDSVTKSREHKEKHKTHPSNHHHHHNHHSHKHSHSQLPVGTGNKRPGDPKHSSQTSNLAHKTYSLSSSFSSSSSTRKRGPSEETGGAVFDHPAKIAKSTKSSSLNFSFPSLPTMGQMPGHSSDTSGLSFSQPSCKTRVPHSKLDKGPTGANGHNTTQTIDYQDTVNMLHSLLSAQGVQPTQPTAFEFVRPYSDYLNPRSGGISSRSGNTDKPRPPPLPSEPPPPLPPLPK
Chain of CDK9/cyclin T1 (P50750 whole entry): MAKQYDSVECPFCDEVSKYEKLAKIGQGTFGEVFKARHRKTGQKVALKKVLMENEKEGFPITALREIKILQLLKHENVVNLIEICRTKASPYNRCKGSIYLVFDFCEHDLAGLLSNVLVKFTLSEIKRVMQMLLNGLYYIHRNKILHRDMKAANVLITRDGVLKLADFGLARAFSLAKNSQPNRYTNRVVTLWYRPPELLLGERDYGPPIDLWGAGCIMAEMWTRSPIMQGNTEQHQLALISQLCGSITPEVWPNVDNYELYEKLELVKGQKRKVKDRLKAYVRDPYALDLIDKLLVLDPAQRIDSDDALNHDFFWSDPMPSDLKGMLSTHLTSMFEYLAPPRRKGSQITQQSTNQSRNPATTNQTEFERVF
The test system of another test is A2780. In words: Antiproliferative activity against human A2780 cells after 72 hrs by firefly luciferase assay. Particulars: A2780, 72 h. The format is functional, cell-based.
The target in test [3] is Cyclin-dependent kinase 2 (Homo sapiens, UniProt P24941). As to the kind of experiment: Inhibition of Cdk2/cyclinA.

Chain of Cell division cycle 7-related protein kinase (O00311 whole entry): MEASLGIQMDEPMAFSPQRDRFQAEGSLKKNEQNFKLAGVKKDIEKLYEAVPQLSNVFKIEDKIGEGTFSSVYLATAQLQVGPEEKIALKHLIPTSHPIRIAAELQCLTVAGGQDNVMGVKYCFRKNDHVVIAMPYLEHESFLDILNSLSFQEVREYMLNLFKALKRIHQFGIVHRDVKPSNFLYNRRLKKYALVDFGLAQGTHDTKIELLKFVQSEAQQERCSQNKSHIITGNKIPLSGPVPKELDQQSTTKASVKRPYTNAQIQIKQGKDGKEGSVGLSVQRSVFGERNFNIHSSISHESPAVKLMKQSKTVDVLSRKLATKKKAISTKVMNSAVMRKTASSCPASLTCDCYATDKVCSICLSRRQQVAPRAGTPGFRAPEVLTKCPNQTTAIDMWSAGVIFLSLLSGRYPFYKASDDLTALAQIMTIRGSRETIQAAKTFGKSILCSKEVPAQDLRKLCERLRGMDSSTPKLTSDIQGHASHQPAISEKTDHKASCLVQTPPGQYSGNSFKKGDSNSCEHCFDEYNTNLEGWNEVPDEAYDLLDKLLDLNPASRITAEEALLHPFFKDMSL

Regarding `CCNC1=N/C(=C\c2c[nH]c3ncccc23)C(=O)N1`, the IC50 in test [1] was found to be 45 nM.

In test [1], `CC(C)(C)C1CCC(NC2=N/C(=C\c3c[nH]c4ncccc34)C(=O)N2)CC1` (stereo not given) gave an IC50 of 207 nM. This IC50 lies about 4.6-fold higher than the previous one.

`O=C1NC(c2ccccc2)=N/C1=C\c1c[nH]c2ccccc12` displayed an IC50 in test [1] of more than 10000 nM.

Take `O=C1N=C(NCc2ccccc2)S/C1=C\c1c[nH]c2ncccc12`: the IC50 in test [2] was less than 50 nM; in test [1] it was 9 nM; against CDK9/cyclin T1 it was 15 nM; in the test with A2780, 320 nM; in test [3] it was less than 50 nM.

With `O=C1N=C(NCc2ccco2)S/C1=C\c1c[nH]c2ncccc12`, the figures for the IC50 (in test [1]; with A2780) were 4 nM and 1200 nM, respectively.

In test [1], `CC(C)(C)CCNC1=N/C(=C\c2c[nH]c3ncccc23)C(=O)N1` returned an IC50 of 24 nM.

In test [1], `O=C1NC(NCc2cccc(Cl)c2)=N/C1=C\c1c[nH]c2ncccc12` registered an IC50 of 39 nM.

Consider `O=C1NC(NCc2ccc(Br)cc2)=N/C1=C\c1c[nH]c2ncccc12`, for which the half-inhibitory concentration (IC50) in test [1] is 127 nM.

`CCCCCCCNC1=N/C(=C\c2c[nH]c3ncccc23)C(=O)N1`: the IC50 in test [1] stood at 247 nM.

Take `Cc1ccc(C2=N/C(=C\c3c[nH]c4ncccc34)C(=O)N2)cc1`: the IC50 in test [1] amounted to 47 nM.

Molecule `O=C1NC(NCCO)=N/C1=C\c1c[nH]c2ncccc12` registered an IC50 in test [1] of 37 nM.

Consider `O=C1NC(NCc2ccccc2)=N/C1=C/c1c[nH]c2ncc([N+](=O)[O-])cc12`, for which, in test [1], the IC50 was more than 10000 nM.

`Cc1cccc(CNC2=N/C(=C\c3c[nH]c4ncccc34)C(=O)N2)c1` displayed an IC50 in test [1] of 50 nM.

Turning to `CC(C)NC1=NC(=O)/C(=C/c2c[nH]c3ncccc23)S1`, the IC50 is 10 nM in test [1] and 1000 nM in the test with A2780.

For `O=C1NC(N2CCOCC2)=N/C1=C\c1c[nH]c2ncccc12`, the IC50 in test [1] came out at 47 nM.

For the molecule `O=C1NC(NCc2ccco2)=N/C1=C\c1c[nH]c2ncccc12`, the figures for the IC50 (in test [1]; with A2780) were 15 nM and 4000 nM, respectively.

The molecule `CCCCCNC1=N/C(=C\c2c[nH]c3ncccc23)C(=O)N1` returned an IC50 in test [1] of 35 nM.

Molecule `O=C1NC(NCc2cccc(Br)c2)=N/C1=C\c1c[nH]c2ncccc12` came in with a half-maximal inhibitory concentration (IC50) in test [1] of 55 nM.

In the case of `C[C@H](NC1=N/C(=C\c2c[nH]c3ncccc23)C(=O)N1)c1ccccc1`, the results for the IC50 (in test [1]; in the test on A2780) were 21 nM and 380 nM, respectively.

`C[C@H](NC1=NC(=O)/C(=C/c2c[nH]c3ncccc23)S1)c1ccccc1`: the IC50 in test [1] was 26 nM; in the test with A2780, 42 nM.

The molecule `CC1CN(C2=N/C(=C\c3c[nH]c4ncccc34)C(=O)N2)CCO1` (stereo not given) gave an IC50 in test [1] of 66 nM.

On to `O=C1NC(NCc2ccc(Cl)cc2)=N/C1=C\c1c[nH]c2ncccc12`, for which the midpoint of inhibition in test [1], the IC50, lay at 86 nM.

Take `CC(C)NC1=N/C(=C\c2c[nH]c3ncccc23)C(=O)N1`: the IC50 was 13 nM in test [1] and 8800 nM in the test on A2780.

Molecule `O=C1NC(NCC2CCCO2)=N/C1=C\c1c[nH]c2ncccc12` (stereo not given) showed an IC50 in test [1] of 21 nM.

Molecule `O=C1NC(c2cccnc2)=N/C1=C\c1c[nH]c2ncccc12` gave an IC50 in test [1] of 60 nM.

In test [1], `O=C1NC(NC2CCCCC2)=N/C1=C\c1c[nH]c2ncccc12` displayed an IC50 of 21 nM.

As for `Cc1ccc(CNC2=N/C(=C\c3c[nH]c4ncccc34)C(=O)N2)cc1`, in test [1], the IC50 stood at 162 nM.

In test [1], `CC1CCC(NC2=N/C(=C\c3c[nH]c4ncccc34)C(=O)N2)CC1` (stereo not given) showed an IC50 of 13 nM.

As to `O=C1NC(NCc2ccccc2)=N/C1=C\c1c[nH]c2ncccc12`, the IC50 in test [1] amounted to 20 nM; on CDK9/cyclin T1 it was 95 nM; with A2780 it was 1200 nM.

In test [1], `O=C1NC(NC2CC2)=N/C1=C\c1c[nH]c2ncccc12` gave an IC50 of 33 nM. This counts as double-digit nanomolar.

The molecule `O=C1NC(c2ccccc2)=N/C1=C\c1c[nH]c2ncccc12` yielded an IC50 in test [1] of 50 nM. Against the preceding molecule, the IC50 is about 1.5-fold higher.

`C/C(=C1/N=C(NCc2ccccc2)NC1=O)c1c[nH]c2ncccc12` yielded an IC50 in test [1] of more than 10000 nM.

In turn, `O=C1NC(NCC2CCCCC2)=N/C1=C\c1c[nH]c2ncccc12` yielded an IC50 in test [1] of 64 nM.

On to `O=C1NC(NCC23CC4CC(CC(C4)C2)C3)=N/C1=C\c1c[nH]c2ncccc12`, for which the IC50 in test [1] is 128 nM.

Turning to `O=C1NC(SCc2ccccc2)=N/C1=C\c1c[nH]c2ncccc12`, on CDK9/cyclin T1, half-maximal inhibition (IC50) was put at 6100 nM. This counts as single-digit micromolar.

Regarding `O=C1NC(NCc2ccccc2)=N/C1=C\c1c[nH]c2ncc([N+](=O)[O-])cc12`, in test [1], half-maximal inhibition (IC50) required 130 nM.

As for `CC(=O)Nc1cnc2[nH]cc(/C=C3\N=C(NCc4ccccc4)NC3=O)c2c1`, the IC50 in test [1] amounted to 116 nM.

In turn, `Cc1cccc(C2=N/C(=C\c3c[nH]c4ncccc34)C(=O)N2)c1` had an IC50 in test [1] of 30 nM. This IC50 lies about 3.9-fold lower than the previous one.

`O=C1NC(NCc2cccs2)=N/C1=C\c1c[nH]c2ncccc12` returned an IC50 in test [1] of 18 nM. This IC50 is about 1.7-fold lower than that of the molecule before.

`O=C1NC(N2CCCCC2)=N/C1=C\c1c[nH]c2ncccc12` registered an IC50 in test [1] of 25 nM.

For `O=C1NC(NCCc2ccccc2)=N/C1=C\c1c[nH]c2ncccc12`, it took 18 nM to reach half-maximal inhibition in test [1] (IC50).

`CC1CCN(C2=N/C(=C\c3c[nH]c4ncccc34)C(=O)N2)CC1` had an IC50 in test [1] of 105 nM. This IC50 lies about 5.8-fold higher than the previous one.

`Nc1cnc2[nH]cc(/C=C3\N=C(NCc4ccccc4)NC3=O)c2c1` returned an IC50 in test [1] of 238 nM.

As a reminder, the IC50 is the midpoint of a concentration-inhibition curve.
